According to patent US11535643B2, “Macrolides with modified desosamine sugars and uses thereof” (President and Fellows of Harvard College, priority 2015, dated 2022):
Values after ≈ are worked out from the molar mass of the structure shown. Where two headings read alike, the source gives them in different places.

Experiments:
Assay type in all cases: cell-based
[1] = test system: S. pneumoniae; experiment: Broth dilution MIC determination (CLSI) against S. pneumoniae strains; details: for MIC: Streptococcus pneumoniae
Summary of the method: (§1)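 MICs were determined by CLSI standard broth dilution against several strains per species, including multidrug-resistant and macrolide-resistant strains. Azithromycin and solithromycin served as control compounds.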

[2] = test system: K. pneumoniae; experiment: Broth dilution MIC determination (CLSI) against K. pneumoniae strains; details: for MIC: Klebsiella pneumoniae
Summary of the method: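 Azithromycin and solithromycin served as controls; MICs were obtained by standard CLSI broth dilution on a strain panel including multidrug-resistant and macrolide-resistant isolates.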

[3] = test system: H. influenzae; experiment: Broth dilution MIC determination (CLSI) against H. influenzae strains; details: Haemophilus influenzae
Description: Minimum inhibitory concentrations (MICs) for macrolides described herein have been determined for unique strains of S. aureus, S. pneumoniae, S. pyogenes, E. faecalis, E. coli, A. baumannii, K. pneumoniae, P. aeruginosa, and H. influenzae, including several multidrug-resistant strains, with a special focus on macrolide resistant mechanisms. Azithromycin and solithromycin were included as control compounds. CLSI standard procedures for broth dilution MIC determination were used. Data for exemplary compounds described herein is shown in Tables M1-M7 and in Tables N1-N4.

[4] = test system: S. pyogenes; experiment: Broth dilution MIC determination (CLSI) against S. pyogenes strains; details: for MIC: Streptococcus pyogenes
Summary of the method: as §1

[5] = test system: P. aeruginosa; experiment: Broth dilution MIC determination (CLSI) against P. aeruginosa strains; details: for MIC: Pseudomonas aeruginosa, ATCC27853, read-out: MIC P. aeruginosa ATCC27853
Summary of the method: as §1

[6] = test system: E. faecalis; experiment: Broth dilution MIC determination (CLSI) against E. faecalis strains; details: for MIC: Enterococcus faecalis
Summary of the method: as §1

[7] = test system: S. aureus; experiment: Broth dilution MIC determination (CLSI) against S. aureus strains; details: for MIC: Staphylococcus aureus
Summary of the method: as §1

[8] = test system: E. coli; experiment: Broth dilution MIC determination (CLSI) against E. coli strains; details: for MIC: Escherichia coli
Summary of the method: as §1

[9] = test system: A. baumannii; experiment: Broth dilution MIC determination (CLSI) against A. baumannii strains; details: for MIC: Acinetobacter baumannii
Summary of the method: as §1

[10] = ATCC49619, ATCC49619, read-out: MIC S. pneumoniae ATCC49619
[11] = erm B + mef A genotype, read-out: MIC S. pneumoniae erm B + mef A genotype
[12] = erm B + tet(M, O) genotype, read-out: MIC S. pneumoniae erm B + tet(M, O) genotype
[13] = read-out: MIC S. pneumoniae mef A genotype, mef A genotype, first of two such columns (c3)
[14] = ATCC10031, ATCC10031, read-out: MIC K. pneumoniae ATCC10031
[15] = KPC-2, read-out: MIC K. pneumoniae KPC-2
[16] = ATCC49247, ATCC49247, read-out: MIC H. influenzae ATCC49247
[17] = erythro > 4, azithro 1, read-out: MIC H. influenzae erythro > 4, azithro 1
[18] = ATCC19615, ATCC19615, read-out: MIC S. pyogenes ATCC19615
[19] = macrolide-resistant, read-out: MIC S. pyogenes macrolide-resistant
[20] = ATCC29212, ATCC29212, read-out: MIC E. faecalis ATCC29212
[21] = Vancomycin-resistant, read-out: MIC E. faecalis Vancomycin-resistant
[22] = ATCC29213, ATCC29213, read-out: MIC S. aureus ATCC29213
[23] = MRSA / USA100, MRSA: USA100, read-out: MIC S. aureus MRSA: USA100
[24] = MRSA / USA300, MRSA: USA300, read-out: MIC S. aureus MRSA: USA300
[25] = USA600, USA600, GISA, read-out: MIC S. aureus USA600, GISA
[26] = read-out: MIC S. aureus erm A genotype
[27] = ATCC25922, ATCC25922, read-out: MIC E. coli ATCC25922
[28] = read-out: MIC E. coli NDM-1, NDM-1
[29] = ATCC19606, ATCC19606, read-out: MIC A. baumannii ATCC19606
[30] = imipenem-resistant, read-out: MIC A. baumannii imipenem-resistant

CC[C@H]1OC(=O)[C@H](C)C(=O)[C@H](C)[C@@H](O[C@@H]2OC(CNC(=O)CN)CC(N(C)C)C2O)[C@](C)(OC)C[C@@H](C)CN[C@H](C)[C@H]2N(CCCCn3cc(-c4cccc(N)c4)nn3)C(=O)O[C@]12C (stereo partly drawn) [FSM-21878]
MIC [1, 10]: < 0.0313 µg/mL | MIC [1, 11]: 4 µg/mL | MIC [1, 12]: < 0.0313 µg/mL | MIC ([1]; read-out: MIC S. pneumoniae mef A genotype, mef A genotype): 8 µg/mL (≈ 8.89 µM) | MIC [1, 13]: 0.5 µg/mL (≈ 0.555 µM) | MIC [2, 14]: 16 µg/mL (≈ 17.8 µM) | MIC [2, 15]: > 32 µg/mL | MIC [3, 16]: > 32 µg/mL | MIC [3, 17]: 32 µg/mL (≈ 35.6 µM) | MIC [4, 18]: < 0.0313 µg/mL | MIC [4, 19]: 4 µg/mL (≈ 4.44 µM) | MIC [5]: > 32 µg/mL | MIC [6, 20]: 16 µg/mL (≈ 17.8 µM) | MIC [6, 21]: > 32 µg/mL | MIC [7, 22]: 32 µg/mL (≈ 35.6 µM) | MIC [7, 23]: > 32 µg/mL | MIC [7, 24]: > 32 µg/mL | MIC [7, 25]: > 32 µg/mL | MIC [7, 26]: > 32 µg/mL | MIC [8, 27]: > 32 µg/mL | MIC [8, 28]: > 32 µg/mL | MIC [9, 29]: > 32 µg/mL | MIC [9, 30]: > 32 µg/mL

CC[C@H]1OC(=O)[C@H](C)C(=O)[C@H](C)[C@@H](O[C@@H]2OC(CNC(=O)c3cc[nH]n3)CC(N(C)C)C2O)[C@](C)(OC)C[C@@H](C)CN[C@H](C)[C@H]2N(CCCCn3cc(-c4cccc(N)c4)nn3)C(=O)O[C@]12C (stereo partly drawn) [FSM-21888]
MIC [1, 10]: < 0.0313 µg/mL | MIC [1, 11]: 2 µg/mL | MIC [1, 12]: < 0.0313 µg/mL | MIC [1, 13]: 0.25 µg/mL (≈ 0.267 µM) | MIC [2, 14]: 8 µg/mL (≈ 8.54 µM) | MIC [2, 15]: > 32 µg/mL | MIC [3, 16]: 8 µg/mL (≈ 8.54 µM) | MIC [3, 17]: 8 µg/mL (≈ 8.54 µM) | MIC [4, 18]: < 0.0313 µg/mL | MIC [4, 19]: 1 µg/mL (≈ 1.07 µM) | MIC [5]: > 32 µg/mL | MIC [6, 20]: 4 µg/mL (≈ 4.27 µM) | MIC [6, 21]: > 32 µg/mL | MIC [7, 22]: 32 µg/mL (≈ 34.1 µM) | MIC [7, 23]: > 32 µg/mL | MIC [7, 24]: > 32 µg/mL | MIC [7, 25]: > 32 µg/mL | MIC [7, 26]: > 32 µg/mL | MIC [8, 27]: 32 µg/mL (≈ 34.1 µM) | MIC [8, 28]: > 32 µg/mL | MIC [9, 29]: > 32 µg/mL | MIC [9, 30]: > 32 µg/mL

CCC1OC(=O)C(C)C(=O)C(C)C(OC2OC(C)CC(NCC#N)C2O)C(C)(OC)CC(C)CNC(C)C2N(CCCCn3cc(-c4cccc(N)c4)nn3)C(=O)OC12C (stereo not drawn) [FSM-120369]
MIC S. pneumoniae ATCC49619 ([1]; ATCC49619, Strain No. MP-21): 0.5 µg/mL (≈ 0.596 µM) | MIC S. pneumoniae mefA ([1]; Strain No. MP-626 UNT-038): 0.25 µg/mL (≈ 0.298 µM) | MIC S. pneumoniae mefA ([1]; Strain No. MP-627 UNT-039): 0.25 µg/mL (≈ 0.298 µM) | MIC K. pneumoniae ATCC10031 ([2]; ATCC10031, Strain No. MP-14): 16 µg/mL (≈ 19.1 µM) | MIC K. pneumoniae clinical ([2]; Strain No. MP546): >64 µg/mL | MIC K. pneumoniae clinical ([2]; Strain No. MP548): >64 µg/mL | MIC S. pyogenes ATCC19615 ([4]; ATCC19615, Strain No. MP-19): 0.5 µg/mL (≈ 0.596 µM) | MIC S. pyogenes mac resistant ([4]; mac resistant, Strain No. MP-625 UNT-014): 2 µg/mL (≈ 2.38 µM) | MIC P. aeruginosa ATCC27853 ([5]; ATCC27853, Strain No. MP-3): >64 µg/mL | MIC P. aeruginosa PAO1 ([5]; PAO1, Strain No. MP-7): >64 µg/mL | MIC P. aeruginosa PAO1:mex ([5]; PAO1:mex, Strain No. MP-8): >64 µg/mL | MIC E. faecalis ATCC29212 ([6]; ATCC29212, Strain No. MP-24): 4 µg/mL (≈ 4.77 µM) | MIC E. faecalis van resistant ([6]; van resistant, Strain No. UNT-039): >64 µg/mL | MIC S. aureus ATCC29213 ([7]; ATCC29213, Strain No. MP-12): 32 µg/mL (≈ 38.1 µM) | MIC S. aureus ATCCBAA-977 ([7]; ATCCBAA-977, Strain No. MP-17): 32 µg/mL (≈ 38.1 µM) | MIC S. aureus (MRSA) GISA USA600 ([7]; GISA USA600, Strain No. MP-619 UNT-120): >64 µg/mL | MIC S. aureus (MRSA) ST-228 cErm ([7]; ST-228 cErm, Strain No. MP-513): >64 µg/mL | MIC S. aureus (MRSA) USA100 ([7]; USA100, Strain No. MP-618 UNT-096): >64 µg/mL | MIC S. aureus (MRSA) USA300 ([7]; USA300, Strain No. MP-549): 32 µg/mL (≈ 38.1 µM) | MIC S. aureus (MRSA) ermA phenotype ([7]; ermA phenotype, Strain No. MP-620 UNT-146): >64 µg/mL | MIC E. coli ATCC25922 ([8]; ATCC25922, Strain No. MP-4): >64 µg/mL | MIC E. coli ATCC25922:tolC ([8]; ATCC25922:tolC, Strain No. MP-9): >64 µg/mL | MIC E. coli clinical ([8]; clinical, Strain No. MP541): >64 µg/mL | MIC E. coli clinical-cErm ([8]; clinical-cErm, Strain No. MP532): >64 µg/mL | MIC A. baumannii ATCC19606 ([9]; ATCC19606, Strain No. MP-15): >64 µg/mL | MIC A. baumannii clinical ([9]; Strain No. MP576): >64 µg/mL | MIC A. baumannii clinical ([9]; Strain No. MP577): >64 µg/mL
